Source: PMC7503713, “GANT61 Reduces Hedgehog Molecule (GLI1) Expression and Promotes Apoptosis in Metastatic Oral Squamous Cell Carcinoma Cells” (International Journal of Molecular Sciences, 2020)

What was measured:
Format in all cases: cell-based, human
HSC3 cells [1] = test: Trypan blue exclusion cell viability assay
Description: (§1) To study the effects of GANT61 on HSC3 cell viability, cycle, and death patterns, 4 mL of cellular solution (containing 0.7 × 10^5 cells/mL) was placed on 6-well plates and incubated overnight, to allow adhesion. […] For cell cycle analysis, the effects of GANT61 on HSC3 cells were also evaluated after 12 h of treatment. Negative controls were treated with the vehicle (0.2% DMSO) used to dilute the GLI inhibitor, and 5-fluorouracil (5-FU, 17 μM) was used as a positive control. All experiments were carried out in duplicate and repeated no less than three times. Cell viability was determined by the trypan blue exclusion method, in which 90 μL aliquots were collected at several incubation periods, stained with 10 μL trypan blue, and counted in a Neubauer chamber, under optical microscopy, at 20× magnification (Olympus CX41 Olympus, Tokyo, Japan).

HSC3 cells [2] = test: Phosphatidylserine externalization by flow cytometry (annexin V-FITC/PI)
Description: as §1
Following treatment with GANT61, cells were labeled with annexin V-FITC and PI to determine cell viability (classified as viable, early apoptosis, late apoptosis, and necrosis), according to the manufacturer’s protocol (Becton Dickinson Biosciences, San José, CA, USA). Cells were acquired (10,000 events/sample) and analyzed on a BD LSRFortessa flow cytometer, using BD FACSDiva software version 6.2 (Becton Dickinson Biosciences, San José, CA, USA). The proportion of cells undergoing apoptosis was determined by the percentage of annexin labeling as quantified by the FlowJo program, version 10 (Flowjo LCC, Ashland, OR, USA). Cellular debris was omitted from our analyses.

SCC9 = test: alamarBlue cytotoxicity assay, SCC9
Description: (§2) To assess the cytotoxicity of the GLI inhibitor GANT61 (Sigma-Aldrich, St. Louis, MO, USA) in tumor and non-tumor cell lines, an alamarBlue assay (Sigma-Aldrich Chemical Co, St. Louis, MO, USA) was performed after 72 h of exposure to the inhibitor, as described by Ahmed et al., 1994 [46]. Cells were distributed on 96-well plates at a density of 7 × 10^4 cells/mL for adhered cells, and 3 × 10^5 cells/mL for cells in suspension. All tested compounds were dissolved in DMSO, added to wells containing 100 µL of cells in complete medium, and then incubated for 72 h. Eight concentrations of GANT61 (0.19 to 50 µg/mL), Doxorubicin (Laboratory IMA S.A.I.C., Buenos Aires, Argentina), and 5-Fluorouracil (5-FU, Sigma-Aldrich, St. Louis, MO, USA), both used as positive controls at concentrations ranging from 0.03 to 5 µg/mL, were added to respective wells. Cells treated with the vehicle (0.5% DMSO) used to dilute the tested compounds were used as negative controls. Before the end of the incubation period (4 h for cell lines and 24 h for PBMCs), 20 µL of alamarBlue stock solution (resazurin, Sigma-Aldrich, St. Louis, MO, USA) was added to each well. Absorbance was measured at 570 nm (reduced) and 595 nm (oxidized) wavelengths, using a Spectramax 190 plate reader (Molecular Devices; Sunnyvale, CA, USA).
(§3) Statistical analyses were performed, using GraphPad Prism v. 6.03 (GraphPad Software, Inc., San Diego, USA). Data were analyzed according to distribution along the normal Gaussian curve. IC50 values were obtained through non-linear regression, using results from three independent experiments carried out in duplicate. Differences between groups resulting from in vitro assays were evaluated by ANOVA (analysis of variance) testing, followed by the Student–Newman–Keuls test. This study considered a level of significance, corresponding to alpha (α) or “p” value, when results were less than or equal to 5%.

Gli1 protein = test: Western blot of HH pathway proteins in HSC3 cells, Gli1; details: 24 h
Description: After culturing, HSC3 cells were washed with PBS and denatured by using cell lysis buffer containing 50 mM Tris-HCl (pH 7.4), 1% Triton X-100, 150 mM NaCl, 0.5 mM EGTA, 0.5 EDTA mM, and an anti-protease cocktail (Complete Pro-inhibitor Cocktail Tablets, Roche, Basel, Switzerland). Protein extracts (50 μg) were separated by SDS-PAGE and transferred to Hybond-C Extra (GE Healthcare, Chicago, IL, USA) nitrocellulose membranes. The following antibodies were used in the Western blot assay: mouse […] against Sonic Hedgehog (1:500, Clone 5 H4, Cat. number NBP2-22126, Novus Biologicals, Centennial, CO, USA), rabbit polyclonal against Gli1 (1:500, Novus Biologicals, Cat. number NB600-600), rabbit polyclonal against Patched 1 (1:500, Novus Biologicals, Cat.number NB200-118), and rabbit polyclonal against Smoothened (1:1000, Cat. number AB72130, Abcam, Cambridge, MA, USA). The secondary antibodies were anti-mouse IgG (1:10,000, Santa Cruz Biotechnology, Santa Cruz, CA, USA) and anti-rabbit IgG (1:10,000, GE Healthcare, Chicago, IL, USA). Signal detection was performed by using an ECL + Chemiluminescence Detection System (PerkinElmer, Villebon sur-Yvette, France). The antibody actin (1:10000, Cat. Number15 G5 A11/E2, Invitrogen, Carlsbad, CA, USA) was selected as an endogenous control for analysis of HH pathway component expression in HSC3 cells. […]

K562 = test: alamarBlue cytotoxicity assay, K562; details: 72 h of incubation
Description: as §2, §3

SMILES	viability of HSC3 cells (HSC3 cells [1]; 18 and 36 µM, 24, 48 and 72 h, vs 0.2% DMSO)	cell apoptosis (HSC3 cells [2]; 18 µM, 48 and 72 h)	exposure of phosphatidylserine on HSC3 cell surfaces (HSC3 cells [2]; 36 µM, all times evaluated, vs DMSO (0.2%))	IC50 (SCC9; 72 h of incubation)	Gli1 protein expression (Gli1 protein; HSC3, 18 and 36 µM)	IC50 (K562)	number of viable cells (HSC3 cells [1]; 17 µM, all incubation times)	cell apoptosis (HSC3 cells [2]; 5-FU positive control, only after 72 h)	IC50 (SCC9; Homo sapiens, SCC-9, 72 h of incubation)	Gli1 protein levels (Gli1 protein; HSC3, 17 µM)	IC50 (K562; Homo sapiens)
CN(C)c1ccccc1CN1CCCN(Cc2ccccc2N(C)C)C1c1ccncc1 [GANT61]	significantly reduce the viability	significantly increased cell apoptosis	significantly higher exposure of phosphatidylserine	83.5 µM	reduced levels	> 116 µM					
O=c1[nH]cc(F)c(=O)[nH]1 [5-FU, 5-fluorouracil]							reduced the number of viable cells	significantly increased cell apoptosis	143 µM	reduce Gli1 protein levels	18.1 µM
